According to ChEMBL document CHEMBL1201862, “PubChem BioAssay data set” (2004):
Blank lines part the entries; values can stand above or below the molecule they belong to. Activity calls are given as the source filed them.

Tests used:
Genome polyprotein = Genome polyprotein (dengue virus type 2, UniProt P29990); test: Dengue-2 NS5 methyltransferase inhibitors, primary screen, biochemical, confirmation dose response (AID 588689); format: functional
Prothrombin = Prothrombin (Bos taurus, UniProt P00735); test: thrombin inhibition, dose response, biochemical, fluorescence polarization, uHTS hits (AID 602369); format: functional
[1] = target: T1, Zinc finger protein mex-5 (Caenorhabditis elegans, UniProt Q9XUB2); test: MEX-5/TCR-2 RNA interaction inhibitors, dose response, biochemical, C. elegans, fluorescence polarization (AID 1960)
T1 sequence (Q9XUB2 whole entry): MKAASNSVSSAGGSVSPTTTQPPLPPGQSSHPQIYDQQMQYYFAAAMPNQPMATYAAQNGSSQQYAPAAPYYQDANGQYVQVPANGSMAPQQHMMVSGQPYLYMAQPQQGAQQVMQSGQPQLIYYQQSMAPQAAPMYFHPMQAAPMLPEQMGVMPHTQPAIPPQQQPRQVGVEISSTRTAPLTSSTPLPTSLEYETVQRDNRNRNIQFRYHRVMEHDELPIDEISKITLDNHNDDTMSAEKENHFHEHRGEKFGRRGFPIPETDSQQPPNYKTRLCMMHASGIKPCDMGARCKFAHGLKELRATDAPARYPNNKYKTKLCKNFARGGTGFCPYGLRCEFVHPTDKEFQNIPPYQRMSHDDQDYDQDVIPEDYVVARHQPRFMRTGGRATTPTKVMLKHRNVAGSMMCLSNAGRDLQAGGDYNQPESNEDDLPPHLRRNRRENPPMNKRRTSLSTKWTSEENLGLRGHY

[2] = target: 26S proteasome non-ATPase regulatory subunit 14 (Homo sapiens, UniProt O00487); test: inhibition of proteasome subunit RPN11 – biochemical, fluorescence polarization, uHTS hits, confirmation (AID 602368); format: functional
26S proteasome non-ATPase regulatory subunit 14, sequence (O00487 whole entry): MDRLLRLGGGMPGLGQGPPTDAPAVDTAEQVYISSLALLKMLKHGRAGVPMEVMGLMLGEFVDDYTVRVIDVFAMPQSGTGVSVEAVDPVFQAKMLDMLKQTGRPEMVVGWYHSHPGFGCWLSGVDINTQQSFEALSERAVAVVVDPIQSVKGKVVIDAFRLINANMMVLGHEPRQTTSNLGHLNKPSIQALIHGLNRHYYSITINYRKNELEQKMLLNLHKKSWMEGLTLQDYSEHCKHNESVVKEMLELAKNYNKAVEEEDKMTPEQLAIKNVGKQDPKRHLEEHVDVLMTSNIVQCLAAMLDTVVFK

[3] = target: 72 kDa type IV collagenase (Homo sapiens, UniProt P08253); test: Dose Response validation of uHTS RPN11 inhibitor hits using a MMP-2 Fluorescence assay.; format: functional
72 kDa type IV collagenase, sequence (P08253 whole entry): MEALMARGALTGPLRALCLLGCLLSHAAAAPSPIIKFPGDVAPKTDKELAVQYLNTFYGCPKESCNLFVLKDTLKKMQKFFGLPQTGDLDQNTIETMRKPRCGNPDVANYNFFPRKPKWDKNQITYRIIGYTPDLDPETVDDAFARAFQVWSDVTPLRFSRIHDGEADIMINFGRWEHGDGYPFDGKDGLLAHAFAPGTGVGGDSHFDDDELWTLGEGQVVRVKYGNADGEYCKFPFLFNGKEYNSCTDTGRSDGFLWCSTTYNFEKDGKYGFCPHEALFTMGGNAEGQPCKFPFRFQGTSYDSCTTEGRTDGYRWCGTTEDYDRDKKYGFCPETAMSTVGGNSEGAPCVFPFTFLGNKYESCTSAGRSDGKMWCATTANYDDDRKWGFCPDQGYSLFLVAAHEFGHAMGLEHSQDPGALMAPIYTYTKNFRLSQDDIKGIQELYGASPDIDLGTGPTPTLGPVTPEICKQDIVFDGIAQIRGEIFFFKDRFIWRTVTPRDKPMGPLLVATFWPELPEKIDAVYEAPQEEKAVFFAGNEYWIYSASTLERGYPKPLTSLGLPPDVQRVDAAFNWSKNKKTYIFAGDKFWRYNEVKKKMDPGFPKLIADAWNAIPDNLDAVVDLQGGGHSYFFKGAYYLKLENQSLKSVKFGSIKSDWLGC

[4] = target: Multidrug resistance protein CDR1 (Candida albicans, UniProt P43071); test: CaCDR1 efflux pump inhibitors in yeast, dose response, S. cerevisiae AD1-8u, singleplex, Cherry Pick1 hits (AID 588606); format: functional
Multidrug resistance protein CDR1, sequence (P43071 whole entry, looked up): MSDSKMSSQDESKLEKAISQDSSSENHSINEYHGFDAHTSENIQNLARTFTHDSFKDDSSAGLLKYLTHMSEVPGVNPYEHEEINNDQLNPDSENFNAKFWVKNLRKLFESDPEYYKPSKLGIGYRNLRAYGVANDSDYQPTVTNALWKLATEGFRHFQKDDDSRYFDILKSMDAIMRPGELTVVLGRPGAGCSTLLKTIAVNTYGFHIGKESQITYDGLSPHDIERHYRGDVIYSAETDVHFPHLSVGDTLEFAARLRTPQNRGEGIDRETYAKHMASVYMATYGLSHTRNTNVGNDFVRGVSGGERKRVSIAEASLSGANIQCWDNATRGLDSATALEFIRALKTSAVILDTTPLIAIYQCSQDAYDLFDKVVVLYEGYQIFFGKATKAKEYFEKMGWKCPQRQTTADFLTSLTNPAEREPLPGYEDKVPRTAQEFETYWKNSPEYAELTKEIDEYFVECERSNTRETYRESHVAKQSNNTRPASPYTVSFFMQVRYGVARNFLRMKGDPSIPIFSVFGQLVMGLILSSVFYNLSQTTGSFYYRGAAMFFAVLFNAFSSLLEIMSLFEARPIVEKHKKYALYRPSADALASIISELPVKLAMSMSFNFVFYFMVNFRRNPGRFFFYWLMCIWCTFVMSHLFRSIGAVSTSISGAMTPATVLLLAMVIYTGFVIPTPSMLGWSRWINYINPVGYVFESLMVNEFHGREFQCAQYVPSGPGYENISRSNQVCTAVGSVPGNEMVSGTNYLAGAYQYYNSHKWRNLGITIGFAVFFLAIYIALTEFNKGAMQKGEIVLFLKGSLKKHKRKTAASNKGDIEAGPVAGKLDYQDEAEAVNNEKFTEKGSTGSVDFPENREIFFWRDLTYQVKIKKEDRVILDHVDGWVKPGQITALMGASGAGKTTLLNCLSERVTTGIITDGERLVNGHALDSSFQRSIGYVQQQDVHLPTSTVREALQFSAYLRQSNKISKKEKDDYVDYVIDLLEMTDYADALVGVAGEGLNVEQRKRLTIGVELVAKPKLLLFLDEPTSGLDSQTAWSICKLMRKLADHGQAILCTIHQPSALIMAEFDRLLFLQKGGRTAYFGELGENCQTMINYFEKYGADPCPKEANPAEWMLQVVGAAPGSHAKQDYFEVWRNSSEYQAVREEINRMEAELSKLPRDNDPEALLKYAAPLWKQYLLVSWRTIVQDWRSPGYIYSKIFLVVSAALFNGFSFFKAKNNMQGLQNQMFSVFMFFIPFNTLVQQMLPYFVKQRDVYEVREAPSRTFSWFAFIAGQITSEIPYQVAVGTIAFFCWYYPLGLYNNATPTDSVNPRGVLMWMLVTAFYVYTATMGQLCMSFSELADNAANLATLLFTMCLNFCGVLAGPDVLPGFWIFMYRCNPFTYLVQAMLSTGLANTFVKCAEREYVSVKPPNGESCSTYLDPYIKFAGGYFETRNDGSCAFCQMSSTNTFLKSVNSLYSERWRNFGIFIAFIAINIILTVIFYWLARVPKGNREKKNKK

[5] = target: T2, Rac GTPase-activating protein 1 (Homo sapiens, UniProt Q9H0H5); test: MgcRacGAP GTPase-activating activity inhibitors, confirmation, biochemical, ADP Hunter fluorescence, primary and confirmatory (AID 624330); format: functional
T2 sequence (Q9H0H5 whole entry): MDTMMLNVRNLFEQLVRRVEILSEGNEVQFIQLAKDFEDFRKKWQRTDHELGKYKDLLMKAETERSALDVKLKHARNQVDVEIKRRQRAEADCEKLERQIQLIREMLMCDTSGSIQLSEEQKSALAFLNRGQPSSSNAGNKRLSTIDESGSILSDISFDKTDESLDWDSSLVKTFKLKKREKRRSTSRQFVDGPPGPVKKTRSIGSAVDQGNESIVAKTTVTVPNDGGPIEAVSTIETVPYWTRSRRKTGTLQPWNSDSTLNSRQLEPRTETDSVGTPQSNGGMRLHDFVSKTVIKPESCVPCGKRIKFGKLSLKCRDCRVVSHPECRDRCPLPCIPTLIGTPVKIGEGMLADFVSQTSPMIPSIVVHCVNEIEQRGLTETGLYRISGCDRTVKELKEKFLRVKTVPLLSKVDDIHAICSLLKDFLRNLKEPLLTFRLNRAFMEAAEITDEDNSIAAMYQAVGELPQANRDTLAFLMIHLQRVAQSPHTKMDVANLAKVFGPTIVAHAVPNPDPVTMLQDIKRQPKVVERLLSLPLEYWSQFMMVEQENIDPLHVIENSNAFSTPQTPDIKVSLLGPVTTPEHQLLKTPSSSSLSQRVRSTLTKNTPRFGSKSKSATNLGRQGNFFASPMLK

[6] = target: T3, Multidrug resistance protein CDR2 (Candida albicans (strain SC5314 / ATCC MYA-2876) (Yeast), UniProt P78595); test: CaCDR2 efflux pump inhibitors in yeast, dose response, S. cerevisiae AD1-8u, singleplex, Cherry Pick1 hits (AID 588604); format: functional
T3 sequence (P78595 whole entry): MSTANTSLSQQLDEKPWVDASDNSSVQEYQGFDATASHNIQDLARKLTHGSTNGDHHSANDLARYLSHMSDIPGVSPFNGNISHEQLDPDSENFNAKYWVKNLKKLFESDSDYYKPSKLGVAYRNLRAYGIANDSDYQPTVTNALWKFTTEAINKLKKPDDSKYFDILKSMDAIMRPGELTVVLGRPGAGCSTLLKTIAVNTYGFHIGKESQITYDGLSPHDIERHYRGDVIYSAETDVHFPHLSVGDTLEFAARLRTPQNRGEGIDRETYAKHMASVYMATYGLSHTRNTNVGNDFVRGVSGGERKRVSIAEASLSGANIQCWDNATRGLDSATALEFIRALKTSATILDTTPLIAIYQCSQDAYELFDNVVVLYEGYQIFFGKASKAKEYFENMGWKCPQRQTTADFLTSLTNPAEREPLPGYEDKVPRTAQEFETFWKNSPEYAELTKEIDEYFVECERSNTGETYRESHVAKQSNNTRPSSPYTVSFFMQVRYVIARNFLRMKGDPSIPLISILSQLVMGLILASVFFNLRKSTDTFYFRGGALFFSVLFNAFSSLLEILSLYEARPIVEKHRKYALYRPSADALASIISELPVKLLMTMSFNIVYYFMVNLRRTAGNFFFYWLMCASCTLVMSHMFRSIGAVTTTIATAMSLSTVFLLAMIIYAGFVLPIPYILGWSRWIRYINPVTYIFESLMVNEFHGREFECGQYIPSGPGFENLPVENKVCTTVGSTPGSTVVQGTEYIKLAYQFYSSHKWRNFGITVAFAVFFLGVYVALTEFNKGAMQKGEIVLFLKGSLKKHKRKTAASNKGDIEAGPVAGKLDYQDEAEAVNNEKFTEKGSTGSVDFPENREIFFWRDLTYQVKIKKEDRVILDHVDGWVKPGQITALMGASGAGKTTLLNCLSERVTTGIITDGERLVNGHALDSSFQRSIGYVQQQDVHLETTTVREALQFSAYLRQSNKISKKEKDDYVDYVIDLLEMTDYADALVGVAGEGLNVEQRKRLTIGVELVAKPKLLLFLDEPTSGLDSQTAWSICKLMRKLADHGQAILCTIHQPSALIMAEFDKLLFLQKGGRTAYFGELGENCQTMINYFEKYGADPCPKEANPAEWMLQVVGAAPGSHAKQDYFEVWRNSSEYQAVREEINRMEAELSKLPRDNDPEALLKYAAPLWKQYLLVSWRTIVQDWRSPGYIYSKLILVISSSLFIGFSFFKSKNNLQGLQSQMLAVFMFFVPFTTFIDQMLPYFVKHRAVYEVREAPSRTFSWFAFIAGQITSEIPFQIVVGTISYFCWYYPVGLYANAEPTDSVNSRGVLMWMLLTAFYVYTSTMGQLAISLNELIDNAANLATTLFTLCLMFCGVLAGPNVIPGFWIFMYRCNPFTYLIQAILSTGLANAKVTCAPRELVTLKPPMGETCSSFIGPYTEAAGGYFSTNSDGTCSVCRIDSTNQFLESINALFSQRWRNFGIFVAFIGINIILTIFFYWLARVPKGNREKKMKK

[7] = target: Benomyl/methotrexate resistance protein (Candida albicans, UniProt P28873); test: CaMdr1 efflux pump inhibitor potency, dose response, singleplex, Cherry Pick1 hits (AID 588608); format: functional
Benomyl/methotrexate resistance protein, sequence (P28873 whole entry): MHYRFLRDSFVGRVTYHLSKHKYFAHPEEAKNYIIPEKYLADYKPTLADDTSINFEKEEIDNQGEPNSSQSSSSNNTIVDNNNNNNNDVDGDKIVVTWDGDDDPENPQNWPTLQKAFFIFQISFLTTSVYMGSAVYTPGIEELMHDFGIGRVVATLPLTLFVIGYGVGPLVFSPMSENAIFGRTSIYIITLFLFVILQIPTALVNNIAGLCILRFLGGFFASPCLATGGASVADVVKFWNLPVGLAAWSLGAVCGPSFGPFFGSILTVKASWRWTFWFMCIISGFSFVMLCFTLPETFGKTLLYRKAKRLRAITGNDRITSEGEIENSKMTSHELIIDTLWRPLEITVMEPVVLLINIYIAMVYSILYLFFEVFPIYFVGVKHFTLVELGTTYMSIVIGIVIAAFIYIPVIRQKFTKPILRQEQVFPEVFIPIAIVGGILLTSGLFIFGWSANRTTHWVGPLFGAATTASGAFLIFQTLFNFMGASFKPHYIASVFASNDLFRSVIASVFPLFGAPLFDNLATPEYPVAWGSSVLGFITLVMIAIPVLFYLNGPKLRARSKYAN

[8] = target: DNA (cytosine-5)-methyltransferase 1 (Homo sapiens, UniProt P26358); test: DNMT1 methyltransferase inhibitors, confirmation, biochemical, fluorescent molecular beacon (AID 602386); format: functional
[9] = target: T4, RNA-binding protein pos-1 (Caenorhabditis elegans, UniProt G5EF15); test: inhibitors of POS-1/mex-3 RNA binding, dose response, biochemical, fluorescence polarization (AID 1964);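 also: purified POS-1 fused to maltose binding protein made in E. coli; potency of compounds blocking POS-1 binding to fluorescent RNA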
T4 sequence (G5EF15 whole entry): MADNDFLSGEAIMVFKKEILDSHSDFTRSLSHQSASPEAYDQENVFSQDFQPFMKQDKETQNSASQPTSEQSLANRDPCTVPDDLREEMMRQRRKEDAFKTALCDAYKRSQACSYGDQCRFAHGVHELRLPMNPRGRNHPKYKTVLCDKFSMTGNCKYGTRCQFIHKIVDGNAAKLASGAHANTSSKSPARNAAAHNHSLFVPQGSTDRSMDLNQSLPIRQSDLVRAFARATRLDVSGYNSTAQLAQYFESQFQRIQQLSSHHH

[10] = target: T5, High affinity choline transporter 1 (Homo sapiens, UniProt Q9GZV3); test: CHT inhibitors, dose response, cell-based, 10-point CRC, membrane potential dye (AID 588401); format: functional;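 also: membrane potential dye fluorescence of choline-evoked depolarization via CHT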
T5 sequence (Q9GZV3 whole entry): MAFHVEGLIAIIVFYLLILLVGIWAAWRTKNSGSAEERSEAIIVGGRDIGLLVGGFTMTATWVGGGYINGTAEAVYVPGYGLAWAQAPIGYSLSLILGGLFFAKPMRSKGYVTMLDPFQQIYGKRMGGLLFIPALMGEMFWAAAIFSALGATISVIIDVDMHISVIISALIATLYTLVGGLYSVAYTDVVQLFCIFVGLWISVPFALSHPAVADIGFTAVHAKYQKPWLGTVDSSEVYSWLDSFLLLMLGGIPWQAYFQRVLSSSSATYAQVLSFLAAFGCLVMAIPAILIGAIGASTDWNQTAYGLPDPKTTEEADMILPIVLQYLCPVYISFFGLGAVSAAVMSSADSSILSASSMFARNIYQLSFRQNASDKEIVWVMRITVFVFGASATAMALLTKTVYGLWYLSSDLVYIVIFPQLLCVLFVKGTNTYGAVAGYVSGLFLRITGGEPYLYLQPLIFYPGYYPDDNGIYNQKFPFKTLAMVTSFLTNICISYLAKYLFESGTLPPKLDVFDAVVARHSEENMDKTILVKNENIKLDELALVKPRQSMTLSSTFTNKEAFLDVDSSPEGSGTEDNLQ

[11] = target: T5, High affinity choline transporter 1; test: CHT inhibitors, dose response, cell-based, 5-point CRC, membrane potential dye (AID 504840); format: functional
[12] = Counterscreen for IDE inhibitors: Luminescence-based cell-based high throughput dose response assay to identify compounds that are cytotoxic to HEK cells. [Related pubchem assays: 434962 (Primary screen (IDE inhibitors in singlicate)), 449730 (Counterscreen (Cytotoxicity in triplicate)), 435028 (Confirmation (IDE inhibitors in triplicate)) …; format: functional; details: HEK293
Insulin-degrading enzyme = target: T6, Insulin-degrading enzyme (Homo sapiens, UniProt P14735); test: Dose Response: Fluorescence polarization-based cell-based high throughput dose response assay for inhibitors of insulin-degrading enzyme (IDE). [Related pubchem assays: 434962 (Primary screen (IDE inhibitors in singlicate)), 449730 (Counterscreen (Cytotoxicity in triplicate)), 435028 (Confirmation (IDE inhibitors in triplicate)), 434984 (Summary …; format: functional
T6 sequence (P14735 whole entry): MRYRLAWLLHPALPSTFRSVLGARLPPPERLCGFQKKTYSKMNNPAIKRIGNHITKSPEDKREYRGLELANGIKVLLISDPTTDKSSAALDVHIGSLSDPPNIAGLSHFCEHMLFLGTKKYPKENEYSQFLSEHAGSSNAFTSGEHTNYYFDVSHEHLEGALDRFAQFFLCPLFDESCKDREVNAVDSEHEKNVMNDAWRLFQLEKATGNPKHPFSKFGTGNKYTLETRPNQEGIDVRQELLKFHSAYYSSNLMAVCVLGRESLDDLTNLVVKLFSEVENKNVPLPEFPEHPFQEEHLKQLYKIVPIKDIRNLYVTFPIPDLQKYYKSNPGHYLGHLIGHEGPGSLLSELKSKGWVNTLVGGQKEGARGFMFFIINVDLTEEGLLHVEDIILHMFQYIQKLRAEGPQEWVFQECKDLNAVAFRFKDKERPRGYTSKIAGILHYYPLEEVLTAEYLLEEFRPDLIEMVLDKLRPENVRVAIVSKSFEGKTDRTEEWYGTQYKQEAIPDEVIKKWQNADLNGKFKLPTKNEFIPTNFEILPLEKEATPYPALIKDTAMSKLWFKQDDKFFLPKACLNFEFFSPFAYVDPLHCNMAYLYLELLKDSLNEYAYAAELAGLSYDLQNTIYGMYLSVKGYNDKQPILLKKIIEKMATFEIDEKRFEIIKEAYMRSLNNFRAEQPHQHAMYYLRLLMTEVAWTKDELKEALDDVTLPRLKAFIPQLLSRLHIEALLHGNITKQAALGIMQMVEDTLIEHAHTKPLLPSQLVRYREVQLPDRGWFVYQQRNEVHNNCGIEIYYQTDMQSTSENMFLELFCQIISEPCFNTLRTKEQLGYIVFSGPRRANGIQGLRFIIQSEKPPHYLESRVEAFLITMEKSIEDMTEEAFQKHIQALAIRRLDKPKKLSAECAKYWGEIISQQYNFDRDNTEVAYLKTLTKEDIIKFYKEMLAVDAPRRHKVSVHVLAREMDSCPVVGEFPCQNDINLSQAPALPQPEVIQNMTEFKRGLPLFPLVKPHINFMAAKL

[13] = target: T7, Small ubiquitin-related modifier 1 (Homo sapiens, UniProt P63165); test: inhibitors of SUMO1 peptide binding, dose response, biochemical, fluorescence polarization, uHTS hits (AID 624382); format: functional; details: read-out: IC50_Mean
T7 sequence (P63165 whole entry): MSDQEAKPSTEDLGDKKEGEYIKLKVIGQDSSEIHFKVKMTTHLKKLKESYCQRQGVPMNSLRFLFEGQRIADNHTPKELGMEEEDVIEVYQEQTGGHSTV

[14] = target: T7, Small ubiquitin-related modifier 1; test: inhibitors of SUMO1 partner interactions, dose response, biochemical, FRET (AID 624383); format: functional; details: read-out: IC50_Mean

Genome polyprotein, sequence (P29990 2492-3391 limits assumed): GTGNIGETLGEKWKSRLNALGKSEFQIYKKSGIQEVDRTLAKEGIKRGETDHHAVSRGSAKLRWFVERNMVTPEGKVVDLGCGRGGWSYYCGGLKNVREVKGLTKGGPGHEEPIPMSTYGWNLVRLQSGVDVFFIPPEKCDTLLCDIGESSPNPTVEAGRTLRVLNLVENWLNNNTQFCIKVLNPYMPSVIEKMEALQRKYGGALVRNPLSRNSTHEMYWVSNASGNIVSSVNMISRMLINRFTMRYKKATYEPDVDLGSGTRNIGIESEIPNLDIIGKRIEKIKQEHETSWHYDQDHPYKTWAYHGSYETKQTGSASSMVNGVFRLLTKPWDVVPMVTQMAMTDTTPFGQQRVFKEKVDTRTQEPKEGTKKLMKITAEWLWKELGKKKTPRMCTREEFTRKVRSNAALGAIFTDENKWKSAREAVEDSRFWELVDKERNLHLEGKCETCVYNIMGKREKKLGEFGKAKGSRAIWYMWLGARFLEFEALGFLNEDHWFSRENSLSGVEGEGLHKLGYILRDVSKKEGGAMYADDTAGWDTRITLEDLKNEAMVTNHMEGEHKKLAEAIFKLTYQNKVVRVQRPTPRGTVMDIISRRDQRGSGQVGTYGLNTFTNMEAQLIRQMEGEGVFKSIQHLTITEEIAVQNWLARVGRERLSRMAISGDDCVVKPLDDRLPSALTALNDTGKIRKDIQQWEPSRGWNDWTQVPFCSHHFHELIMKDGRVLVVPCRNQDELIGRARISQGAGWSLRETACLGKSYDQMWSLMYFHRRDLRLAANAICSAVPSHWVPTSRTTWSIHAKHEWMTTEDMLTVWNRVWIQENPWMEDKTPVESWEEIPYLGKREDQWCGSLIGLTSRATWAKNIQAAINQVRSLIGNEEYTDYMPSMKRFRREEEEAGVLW

Structure (SMILES): O=C(O)CCN1C(=O)/C(=C/c2ccc(-c3nc4ccccc4s3)o2)SC1=S
IC50 (Genome polyprotein): > 100 µM (active)
IC50 (Prothrombin): 5.11 µM (active)
EC50 [1]: 21.8 µM (active)
IC50 [2]: 2.93 µM (active)
IC50 [3]: > 100 µM (inactive)
EC50 [4]: 11.2 µM (active)
IC50 [5]: 30.6 µM (active)
EC50 [6]: 12.1 µM (active)
EC50 [7]: 0.102 µM (active)
IC50 [8]: 4.66 µM (active)
EC50 [9]: 32.3 µM (active)

IC50 [10]: 4.47 µM (active)
IC50 [11]: 8.38 µM (active)
Structure (SMILES): CCc1cc(C(=O)Cc2ccc(F)cc2)c(O)cc1O

IC50 [10]: 2.38 µM (active)
IC50 [11]: 4.47 µM (active)
Structure (SMILES): COc1ccc(C(=O)NCc2cnn(C)c2C)cc1OC1CCN(C(C)C)CC1

Structure (SMILES): O=C1Nc2ccccc2/C1=C/c1c[nH]c(-c2ccccc2)n1
IC50 [12]: 18.1 µM (not active)
IC50 (Insulin-degrading enzyme): > 55.9 µM (not active)
IC50 [13]: > 66.6 µM (inactive)
IC50 [14]: 4.96 µM (active)
EC50 [6]: 3.89 µM (active)
